{"source": "patent US7659270B2", "about": "“Hepatitis C virus inhibitors” (Bristol-Myers Squibb Company, priority 2006, dated 2010)", "tested_on": "HCV 1b-377-neo replicon cells", "test": "HCV replicon assay (HCV 1b-377-neo replicon cells)", "format": "cell-based, Hepatitis C virus genotype 1b", "method_in_brief": "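HCV genotype 1b (1b-377-neo) replicon cells, run as a validated replicon assay; parallel testing in replicon cells carrying the NS5A Y2065H resistance mutation.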", "key": {"[1]": {"conditions": "Hepatitis C virus, read-out: EC50 range against HCV 1b (Range)"}, "[2]": {"conditions": "read-out: EC50 range against HCV 1b (Range)"}}, "note": "Where two headings read alike, the source gives them in different places.", "data": [{"molecule": "COC(=O)N[C@@H](C(=O)N1CCC[C@H]1c1ncc(-c2ccc(-c3ccc(-c4cnc([C@@H]5CCCN5C(=O)Cc5cccnc5)[nH]4)cn3)cc2)[nH]1)c1ccccc1", "note": "[Example 143, methyl ((1R)-2-oxo-1-phenyl-2-((2S)-2-(5-(4-(5-(2-((2S)-1-(3-pyridinylacetyl)-2-pyrrolidinyl)-1H-imidazol-5-yl)-2-pyridinyl)phenyl)-1H-imidazol-2-yl)-1-pyrrolidinyl)ethyl)carbamate]", "values": [{"measurement": "EC50", "setting": "[1]", "result": "0.01 to 0.999", "unit": "nM"}]}, {"molecule": "COC(=O)N[C@@H](C(=O)N1CCC[C@H]1c1ncc(-c2ccc(-c3ncc(-c4cnc([C@@H]5CCCN5C(=O)[C@@H](c5ccccc5)N5CCCCC5)[nH]4)cn3)cc2)[nH]1)c1ccccc1", "note": "[Example 152l-3, methyl ((1R)-2-oxo-1-phe-nyl-2-((2S)-2-(4-(4-(5-(2-((2S)-1-((2R)-2-phenyl-2-(1-piperidinyl)acetyl)-2-pyrrolidinyl)-1H-imidazol-5-yl)-2-pyrimi-dinyl)phenyl)-1H-imidazol-2-yl)-1-pyrroli-dinyl)ethyl)carba-mate]", "values": [{"measurement": "EC50", "setting": "[1]", "result": "0.01 to 0.999", "unit": "nM"}]}, {"molecule": "CN(C)[C@@H](C(=O)N1CCC[C@H]1c1nc(-c2ccc(-c3ccc(-c4cn(C)c([C@@H]5CCCN5C(=O)[C@@H](c5ccccc5)N(C)C)n4)cc3)cc2)cn1C)c1ccccc1", "note": "(single isomer, unassigned) [Example 151 isomer 1]", "values": [{"measurement": "EC50", "setting": "listed as 151 isomer 1, read-out: EC50 range against HCV 1b (Range)", "result": "1 to 99", "unit": "nM"}]}, {"molecule": "COC(=O)N[C@@H](C(=O)N1CCC[C@H]1c1ncc(-c2ccc(-c3ccc(-c4cnc([C@@H]5CCCN5C(=O)[C@@H](c5ccccc5)N(C)C)[nH]4)cc3C)cc2)[nH]1)c1ccccc1", "note": "[Example 126, methyl ((1R)-2-((2S)-2-(5-(4′-(2-((2S)-1-((2R)-2-(dimethylamino)-2-phenylacetyl)-2-pyrolidinyl)-1H-imidazol-5-yl)-2′-methyl-4-biphenylyl)-1H-imidazol-2-yl)-1-pyrrolidinyl)-2-oxo-1-phenylethyl)carbamate]", "values": [{"measurement": "EC50", "setting": "[2]", "result": "0.01 to 0.999", "unit": "nM"}]}, {"molecule": "COC(=O)N[C@@H](C(=O)N(C)[C@@H](C)c1ncc(-c2ccc(-c3ccc(-c4cnc([C@@H]5CCCN5C(=O)[C@H](NC(=O)OC)c5ccccc5)[nH]4)cc3)cc2)[nH]1)c1ccccc1", "note": "[Example 24-18-4, methyl ((1R)-2-((2S)-2-(5-(4′-(2-((1S)-1-(((2R)-2-((methoxy-carbonyl)a-mino)-2-phenyl-acetyl)(meth-yl)ami-no)ethyl)-1H-imidazol-5-yl)-4-bi-phenylyl)-1H-imidazol-2-yl)-1-pyrrolidi-nyl)-2-oxo-1-phenyl-ethyl)carba-mate]", "values": [{"measurement": "EC50", "setting": "[1]", "result": "0.01 to 0.999", "unit": "nM"}]}, {"molecule": "COC(=O)N[C@@H](C(=O)N1CCC[C@H]1c1ncc(-c2ccc(-c3ccc(-c4cnc([C@@H]5CCCN5C(=O)[C@H](NC(=O)OC)c5ccccc5)[nH]4)nn3)nn2)[nH]1)c1ccccc1", "note": "[Example 153c-2, dimethyl (3,3′-bipyrida-zine-6,6′-diylbis(1H-imi-dazole-5,2-diyl(2S)-2,1-pyrrolidine-diyl((1R)-2-oxo-1-phenyl-2,1-ethane-diyl)))biscarba-mate]", "values": [{"measurement": "EC50", "setting": "[1]", "result": "1 to 99", "unit": "nM"}]}, {"molecule": "COC(=O)N[C@@H](C(=O)N[C@@H](C)c1ncc(-c2cnc(-c3ccc(-c4cnc([C@@H]5CCCN5C(=O)[C@H](NC(=O)OC)c5ccccc5)[nH]4)cc3)cn2)[nH]1)c1ccccc1", "note": "[Example 152j-19, methyl ((1R)-2-((2S)-2-(5-(4-(5-(2-((1S)-1-(((2R)-2-((methoxycarbonyl)a-mino)-2-phenyl-acetyl)amino)eth-yl)-1H-imidazol-5-yl)-2-pyrazinyl)phenyl)-1H-imidazol-2-yl)-1-pyrrolidinyl)-2-oxo-1-phenylethyl)carbamate]", "values": [{"measurement": "EC50", "setting": "[1]", "result": "0.01 to 0.999", "unit": "nM"}]}, {"molecule": "COC(=O)N[C@H](C(=O)N1CCC[C@H]1c1ncc(-c2ccc(-c3ccc(-c4cnc([C@@H]5CCCN5C(=O)[C@@H](Nc5noc(N)n5)C(C)C)[nH]4)cc3)cc2)[nH]1)C(C)C", "note": "[cj-16, methyl((1S)-1-(((2S)-2-(5-(4′-(2-((2S)-1-(N-(5-amino-1,2,4-oxadiazol-3-yl)-L-valyl)-2-pyrrolidinyl)-1H-imidazol-5-yl)-4-biphenylyl)-1H-imidazol-2-yl)-1-pyrrolidinyl)carbonyl)-2-methylpropyl)carbamate]", "values": [{"measurement": "EC50", "setting": "[1]", "result": "0.01 to 0.999", "unit": "nM"}]}, {"molecule": "CN(C)[C@@H](C(=O)N1CCC[C@H]1c1ncc(-c2ccc(-c3ccc(-c4cnc([C@@H]5CCCN5C(=O)[C@@H](c5ccccc5)N(C)C)[nH]4)cn3)cc2)[nH]1)c1ccccc1", "note": "[Example 132, (1R)-2-((2S)-2-(5-(6-(4-(2-((2S)-1-((2R)-2-(dimethylamino)-2-phenylacetyl)-2-pyrrolidinyl)-1H-imidazol-5-yl)phenyl)-3-pyridinyl)-1H-imidazol-2-yl)-1-pyrrolidinyl)-N,N-dimethyl-2-oxo-1-phenylethanamine]", "values": [{"measurement": "EC50", "setting": "[1]", "result": "0.01 to 0.999", "unit": "nM"}]}, {"molecule": "COC(=O)N[C@@H](C(=O)N[C@@H](C)c1ncc(-c2ccc(-c3ncc(-c4cnc([C@@H]5CCCN5C(=O)[C@@H](c5ccccc5)N5CCCCC5)[nH]4)cn3)cc2)[nH]1)c1ccccc1", "note": "[Example 152l-2, methyl ((1R)-2-oxo-1-phen-yl-2-(((1S)-1-(4-(4-(5-(2-((2S)-1-((2R)-2-phenyl-2-(1-piperi-dinyl)acetyl)-2-pyrrolidinyl)-1H-imidazol-5-yl)-2-pyrimi-dinyl)phenyl)-1H-imidazol-2-yl)eth-yl)amino)ethyl)car-bamate]", "values": [{"measurement": "EC50", "setting": "[1]", "result": "0.01 to 0.999", "unit": "nM"}]}, {"molecule": "CCC(C)NCC(=O)N1CCC[C@H]1c1ncc(-c2ccc(-c3ccc(-c4cnc([C@@H]5CCCN5C(=O)[C@@H](NC(=O)OC)C(C)C)[nH]4)cc3)cc2)[nH]1", "note": "(some centres unmarked) [LS24]", "values": [{"measurement": "EC50", "setting": "[2]", "result": "0.01 to 0.999", "unit": "nM"}]}, {"molecule": "COC(=O)N[C@H](C(=O)N1CCC[C@H]1c1ncc(-c2cnc(-c3ccc(-c4[nH]c([C@@H]5CCCN5C(=O)[C@@H](NC(=O)OC)C5CC5)nc4C(F)(F)F)cc3)nc2)[nH]1)C1CC1", "note": "[Example J49, methyl ((1S)-1-cyclopropyl-2-((2S)-2-(5-(4-(5-(2-((2S)-1-((2S)-2-cyclopropyl-2-((methoxy-carbonyl)amino)acetyl)-2-pyrrolidinyl)-1H-imidazol-5-yl)-2-pyrimi-dinyl)phenyl)-4-(trifluoromethyl)-1H-imida-zol-2-yl)-1-pyrrolidinyl)-2-oxoeth-yl)carbamate]", "values": [{"measurement": "EC50", "setting": "[1]", "result": "0.01 to 0.999", "unit": "nM"}]}, {"molecule": "COC(=O)N[C@@H](C(=O)N1CCC[C@H]1c1ncc(-c2ccc(-c3ccc(-c4cnc([C@@H]5CCCN5C(=O)[C@H](NC(=O)OC)c5ccccc5)[nH]4)cn3)nc2)[nH]1)c1ccccc1", "note": "[Example 145, dimethyl(2,2′-bipyridine-5,5′-diylbis(1H-imidazole-5,2-diyl(2S)-2,1-pyrrolidinediyl((1R)-2-oxo-1-phenyl-2,1-ethanediyl)))biscarbamate]", "values": [{"measurement": "EC50", "setting": "[1]", "result": "0.01 to 0.999", "unit": "nM"}]}, {"molecule": "Cc1cc(-c2cnc([C@@H]3CCCN3C(=O)[C@@H](c3ccccc3)N(C)C)[nH]2)ccc1-c1ccc(-c2cnc([C@@H]3CCCN3C(=O)[C@@H](c3ccccc3)N(C)C)[nH]2)cc1C", "note": "[Example 121, (1R,1′R)-2,2′-((2,2′-dimethyl-4,4′-biphenyldiyl)bis(1H-imidazole-5,2-diyl(2S)-2,1-pyrrolidinediyl))bis(N,N-dimethyl-2-oxo-1-phenylethanamine)]", "values": [{"measurement": "EC50", "setting": "[1]", "result": "0.01 to 0.999", "unit": "nM"}]}, {"molecule": "COC(=O)N[C@@H](C(=O)N[C@@H](C)c1ncc(-c2ccc(-c3ncc(-c4cnc([C@@H]5CCCN5C(=O)[C@H](NC(=O)OC)c5ccccc5)[nH]4)cn3)cc2)[nH]1)c1ccccc1", "note": "[Example 152j-15, methyl ((1R)-2-((2S)-2-(5-(2-(4-(2-((1S)-1-(((2R)-2-((methoxycarbonyl)a-mino)-2-phenyl-acetyl)amino)eth-yl)-1H-imidazol-5-yl)phenyl)-5-pyrimidinyl)-1H-imidazol-2-yl)-1-pyrrolidinyl)-2-oxo-1-phenylethyl)carbamate]", "values": [{"measurement": "EC50", "setting": "[1]", "result": "0.01 to 0.999", "unit": "nM"}]}, {"molecule": "COC(=O)N[C@@H](C(=O)N[C@@H](C)c1ncc(-c2cnc(-c3ccc(-c4cnc([C@@H]5CCCN5C(=O)[C@H](NC(=O)OC)c5ccccc5)[nH]4)cc3)nc2)[nH]1)c1ccccc1", "note": "[Example 152j-17, methyl ((1R)-2-((2S)-2-(5-(4-(5-(2-((1S)-1-(((2R)-2-((methoxycarbonyl)a-mino)-2-phenyl-acetyl)amino)eth-yl)-1H-imidazol-5-yl)-2-pyrimidinyl)phenyl)-1H-imidazol-2-yl)-1-pyrrolidinyl)-2-oxo-1-phenylethyl)carba-mate]", "values": [{"measurement": "EC50", "setting": "[1]", "result": "0.01 to 0.999", "unit": "nM"}]}, {"molecule": "C[C@H](NC(=O)[C@@H](c1ccccc1)N(C)C)c1ncc(-c2cnc(-c3ccc(-c4cnc([C@@H]5CCCN5C(=O)[C@@H](c5ccccc5)N(C)C)[nH]4)cc3)nc2)[nH]1", "note": "[Example 152j-16, (2R)-2-(dimethylamino)-N-((1S)-1-(5-(2-(4-(2-((2S)-1-((2R)-2-(dimethylamino)-2-phenylacetyl)-2-pyrrolidinyl)-1H-imidazol-5-yl)phenyl)-5-pyrimidinyl)-1H-imidazol-2-yl)ethyl)-2-phenylacetamide]", "values": [{"measurement": "EC50", "setting": "[1]", "result": "0.01 to 0.999", "unit": "nM"}]}, {"molecule": "COC(=O)N[C@@H](C(=O)N[C@@H](C)c1ncc(-c2ccc(-c3ccc(-c4cnc([C@H](C)NC(=O)[C@H](NC(=O)OC)c5ccccc5)[nH]4)cn3)cc2)[nH]1)c1ccccc1", "note": "[Example 152j-23]", "values": [{"measurement": "EC50", "setting": "[1]", "result": "0.01 to 0.999", "unit": "nM"}]}, {"molecule": "C[C@@H](c1ncc(-c2ccc(-c3ncc(-c4cnc([C@@H]5CCCN5C(=O)[C@@H](c5ccccc5)N(C)C)[nH]4)cn3)cc2)[nH]1)N(C)C(=O)[C@@H](c1ccccc1)N(C)C", "note": "[Example 152j-20, (2R)-2-(dimethylamino)-N-((1S)-1-(5-(4-(5-(2-((2S)-1-((2R)-2-(dimethylamino)-2-phenylacetyl)-2-pyrrolidinyl)-1H-imidazol-5-yl)-2-pyrimidinyl)phenyl)-1H-imidazol-2-yl)ethyl)-N-methyl-2-phenylacetamide]", "values": [{"measurement": "EC50", "setting": "[1]", "result": "1 to 99", "unit": "nM"}]}, {"molecule": "COC(=O)N[C@@H](C(=O)N1CCC[C@H]1c1ncc(-c2ccc(-c3ccc(-c4cnc([C@@H]5CCCN5C(=O)[C@@H]5CCCO5)[nH]4)cc3C)cc2)[nH]1)c1ccccc1", "note": "[Example 128, methyl ((1R)-2-((2S)-2-(5-(2′-methyl-4′-(2-((2S)-1-((2S)-tetrahydro-2-furanylcarbonyl)-2-pyrrolidinyl)-1H-imidazol-5-yl)-4-biphenylyl)-1H-imidazol-2-yl)-1-pyrrolidinyl)-2-oxo-1-phenylethyl)carbamate]", "values": [{"measurement": "EC50", "setting": "[1]", "result": "0.01 to 0.999", "unit": "nM"}]}]}
